# Measured values from patent US12448388B2, “PRMT5 inhibitors and uses thereof” (Gilead Sciences, Inc., priority 2023, dated 2025).
# Like-named read-outs stand apart in the source and are kept apart here.
# Assays:
# [1] = system: HCT116 MTAP-deleted cell lines; test: Cell viability assay (CellTiter-Glo, 7 days), HCT116 MTAP-deleted; assay type: cell-based; conditions: Homo sapiens, HCT-116, HCT116 MTAP-deleted, class symbols, read-out: CC50
# How it was run: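 Luminescent ATP readout (CellTiter-Glo) after 7 days of continuous compound exposure gives the CC50 value. Cells were plated onto pre-dispensed DMSO dilution series of the PRMT5 inhibitors and kept at 37 °C in 5% CO2.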
# [2] = system: Symmetric Di-methyl Arginine (SDMA) signal (PRMT5 inhibition) in HCT116 MTAP-deleted cells; test: Symmetric di-methyl arginine image-based high content screen assay (SDMA assay), HCT116 MTAP-deleted; assay type: cell-based; conditions: for EC50: Homo sapiens, HCT-116, HCT116 MTAP-deleted, class symbols
# How it was run: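 HCT116 WT and MTAP-deleted cells (800/well, RPMI 1640 + 10% FBS) treated with compound 3 days at 37 °C; formalin-fixed, stained with anti-SDMA antibody/Alexa 488 plus DAPI. Mean SDMA intensity per DAPI-defined cell imaged; EC50 from 4-parameter logistic fit.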
# [3] = HCT116 WT versus HCT116 MTAP-deleted
# [4] = HCT116 WT vs HCT116 MTAP-deleted
Compound,"EC50 selectivity [2, 3]",EC50 [2],"EC50 selectivity [2, 4]",CC50 ([1]; cell viability),CC50 ([1]; cell viability assay)
"Nc1nc2cc(F)c(C(=O)N(Cc3ccc(C(F)(F)F)cc3F)C34CC(C3)C4)cc2n2cncc12 [Ff-210, 4-amino-N-(bicyclo[1.1.1]pentan-1-yl)-7-fluoro-N-(2-fluoro-4-(trifluoromethyl)benzyl)imidazo[1,5-a]quinoxaline-8-carboxamide]",45,≤ 1 nM,–,< 100 nM,–
"Cn1cc(N(Cc2ccc(C(F)(F)F)cc2F)C(=O)c2ccc3nc(N)c4cncn4c3c2)cn1 [Ff-278, 4-amino-N-(2-fluoro-4-(trifluoromethyl)benzyl)-N-(1-methyl-1H-pyrazol-4-yl)imidazo[1,5-a]quinoxaline-8-carboxamide]",47,1 to 5 nM,–,< 100 nM,–
"CN(C(=O)c1cc2c(cc1F)nc(N)c1cncn12)[C@@H]1COCc2cc(-c3cnn(C(F)(F)F)c3)ccc21 [Ff-279, (S)-4-amino-7-fluoro-N-methyl-N-(7-(1-(trifluoromethyl)-1H-pyrazol-4-yl)isochroman-4-yl)imidazo[1,5-a]quinoxaline-8-carboxamide]",60,≤ 1 nM,–,< 100 nM,–
"CN(C(=O)c1cc2c(cc1F)nc(N)c1cncn12)[C@@H]1COCc2cc(-c3ccn(C(F)(F)F)n3)ccc21 [Ff-280, (S)-4-amino-7-fluoro-N-methyl-N-(7-(1-(trifluoromethyl)-1H-pyrazol-3-yl)isochroman-4-yl)imidazo[1,5-a]quinoxaline-8-carboxamide]",118,1 to 5 nM,–,< 100 nM,–
"Nc1nc2cc(Cl)c(C(=O)N3CCOC[C@@H]3c3ccc(C(F)(F)F)cc3)cc2n2cncc12 [Ff-289, (S)-(4-amino-7-chloroimidazo[1,5-a]quinoxalin-8-yl)(3-(4-(trifluoromethyl)phenyl)morpholino)methanone]",88,≤ 1 nM,–,< 100 nM,–
"Cc1ncc2c(N)nc3cc(F)c(C(=O)N(C)[C@@H]4COCc5nc(C(F)(F)F)ccc54)cc3n12 [Ff-304, (S)-4-amino-7-fluoro-N,1-dimethyl-N-(2-(trifluoromethyl)-5,8-dihydro-6H-pyrano[3,4-b]pyridin-5-yl)imidazo[1,5-a]quinoxaline-8-carboxamide]",127,1 to 5 nM,–,< 100 nM,–
"CN(C(=O)c1cc2c(cc1F)nc(N)c1cncn12)[C@@H]1COc2cc(-n3cnc(C(F)(F)F)n3)ccc21 [Ff-324, (S)-4-amino-7-fluoro-N-methyl-N-(6-(3-(trifluoromethyl)-1H-1,2,4-triazol-1-yl)-2,3-dihydrobenzofuran-3-yl)imidazo[1,5-a]quinoxaline-8-carboxamide]",53,1 to 5 nM,–,< 100 nM,–
"Nc1nc2cnc(C(=O)N3CCC[C@@H]4Oc5cc(OC(F)(F)F)c(F)cc5[C@@H]43)cc2n2cncc12 [Ff-378, (4-aminoimidazo[1,5-a]pyrido[3,4-e]pyrazin-8-yl)((4aS,9bS)-8-fluoro-7-(trifluoromethoxy)-3,4,4a,9b-tetrahydrobenzofuro[3,2-b]pyridin-1(2H)-yl)methanone]",–,≤ 1 nM,106,–,< 100 nM
"Nc1nc2ccc(C(=O)N(CC3CC3)[C@@H]3COc4cc(C(F)(F)F)ccc43)cc2n2cncc12 [Ff-407, (S)-4-amino-N-(cyclopropylmethyl)-N-[(3S)-6-(trifluoromethyl)-2,3-dihydrobenzofuran-3-yl]imidazo[1,5-a]quinoxaline-8-carboxamide]",–,≤ 1 nM,65,–,< 100 nM
"Nc1nc2ccc(C(=O)N(Cc3ccc(C(F)(F)F)cc3F)C3COC3)cc2n2cncc12 [Ff-410, 4-amino-N-[[2-fluoro-4-(trifluoromethyl)phenyl]methyl]-N-(oxetan-3-yl)imidazo[1,5-a]quinoxaline-8-carboxamide]",–,> 5 nM,453,–,100 to 1000 nM
"CC(C)N(Cc1ccc(C(F)(F)F)cc1F)C(=O)c1ccc2nc(N)c3cncn3c2c1 [Ff-412, 4-amino-N-[[2-fluoro-4-(trifluoromethyl)phenyl]methyl]-N-isopropyl-imidazo[1,5-a]quinoxaline-8-carboxamide]",–,≤ 1 nM,252,–,< 100 nM
"Nc1nc2cc(F)c(C(=O)N3CCC[C@@H]4Oc5c(ccc(C(F)(F)F)c5F)[C@@H]43)cc2n2cncc12 [Ff-501, (4-amino-7-fluoroimidazo[1,5-a]quinoxalin-8-yl)((4aS,9bS)-6-fluoro-7-(trifluoromethyl)-3,4,4a,9b-tetrahydrobenzofuro[3,2-b]pyridin-1(2H)-yl)methanone]",–,≤ 1 nM,115,–,< 100 nM
"Cc1ncn2c1c(N)nc1cnc(C(=O)N(C)[C@@H]3COc4cc(C(F)(F)F)ccc43)cc12 [Ff-502, (S)-4-amino-N,3-dimethyl-N-(6-(trifluoromethyl)-2,3-dihydrobenzofuran-3-yl)imidazo[1,5-a]pyrido[3,4-e]pyrazine-8-carboxamide]",–,1 to 5 nM,112,–,< 100 nM
"CN(C(=O)c1ccc2nc(N)c3cncn3c2c1)[C@@H]1COc2cc(C3CC3)ccc21 [Ff-548, (S)-4-amino-N-(6-cyclopropyl-2,3-dihydrobenzofuran-3-yl)-N-methylimidazo[1,5-a]quinoxaline-8-carboxamide]",–,1 to 5 nM,102,–,100 to 1000 nM
"Nc1nc2ccc(C(=O)N3CCC4(CC4)[C@@H]4Oc5cc(OC(F)(F)F)ccc5[C@@H]43)cc2n2cncc12 [Ff-615, (4-aminoimidazo[1,5-a]quinoxalin-8-yl)((4aS,9bS)-7-(trifluoromethoxy)-2,3,4a,9b-tetrahydro-1H-spiro[benzofuro[3,2-b]pyridine-4,1′-cyclopropan]-1-yl)methanone]",–,≤ 1 nM,158,–,< 100 nM

# The next lines start with results.
"EC50 selectivity [2, 3]",EC50 [2],"EC50 selectivity [2, 4]",Compound,CC50 ([1]; cell viability),CC50 ([1]; cell viability assay)
153,1 to 5 nM,–,"CN(C(=O)c1cc2c(cc1F)nc(N)c1cncn12)[C@@H]1COc2cc(-c3cnn(C(F)F)c3)ccc21 [Ff-213, (S)-4-amino-N-(6-(1-(difluoromethyl)-1H-pyrazol-4-yl)-2,3-dihydrobenzofuran-3-yl)-7-fluoro-N-methylimidazo[1,5-a]quinoxaline-8-carboxamide]",< 100 nM,–
224,1 to 5 nM,–,"CN(C(=O)c1cc2c(cc1F)nc(N)c1cncn12)[C@@H]1COc2cc(-c3cnn(C4CC4)c3)ccc21 [Ff-215, (S)-4-amino-N-(6-(1-cyclopropyl-1H-pyrazol-4-yl)-2,3-dihydrobenzofuran-3-yl)-7-fluoro-N-methylimidazo[1,5-a]quinoxaline-8-carboxamide]",< 100 nM,–
447,≤ 1 nM,–,"CN(C(=O)c1cc2c(cc1F)nc(N)c1cncn12)[C@@H]1COc2cc(-n3cnc(C(F)(F)F)c3)ccc21 [Ff-325, (S)-4-amino-7-fluoro-N-methyl-N-(6-(4-(trifluoromethyl)-1H-imidazol-1-yl)-2,3-dihydrobenzofuran-3-yl)imidazo[1,5-a]quinoxaline-8-carboxamide]",< 100 nM,–
–,1 to 5 nM,337,"CN(C(=O)c1cc2c(cc1F)nc(N)c1cncn12)[C@@H]1COc2cc(C#CC3(C)COC3)ccc21 [Ff-516, (S)-4-amino-7-fluoro-N-methyl-N-(6-((3-methyloxetan-3-yl)ethynyl)-2,3-dihydrobenzofuran-3-yl)imidazo[1,5-a]quinoxaline-8-carboxamide]",–,< 100 nM
–,1 to 5 nM,109,"Cc1cn(-c2ccc3c(c2)OC[C@H]3N(C)C(=O)c2cc3c(cc2F)nc(N)c2cncn23)cn1 [Ff-544, (S)-4-amino-7-fluoro-N-methyl-N-(6-(4-methyl-1H-imidazol-1-yl)-2,3-dihydrobenzofuran-3-yl)imidazo[1,5-a]quinoxaline-8-carboxamide]",–,< 100 nM
–,1 to 5 nM,157,"CN(C(=O)c1cc2c(cc1F)nc(N)c1cncn12)[C@@H]1COc2cc(-n3cc(C(F)(F)F)cn3)ccc21 [Ff-545, (S)-4-amino-7-fluoro-N-methyl-N-(6-(4-(trifluoromethyl)-1H-pyrazol-1-yl)-2,3-dihydrobenzofuran-3-yl)imidazo[1,5-a]quinoxaline-8-carboxamide]",–,< 100 nM
–,1 to 5 nM,497,"CN(C(=O)c1ccc2nc(N)c3cncn3c2c1)[C@@H]1COc2cc(Cl)ccc21 [Ff-566, (S)-4-amino-N-(6-chloro-2,3-dihydrobenzofuran-3-yl)-N-methylimidazo[1,5-a]quinoxaline-8-carboxamide]",–,100 to 1000 nM
–,≤ 1 nM,707,"CN(C(=O)c1cc2c(cc1F)nc(N)c1cncn12)[C@@H]1COc2cc(Cl)ccc21 [Ff-567, (S)-4-amino-N-(6-chloro-2,3-dihydrobenzofuran-3-yl)-7-fluoro-N-methylimidazo[1,5-a]quinoxaline-8-carboxamide]",–,< 100 nM
–,> 5 nM,457,"CN(C(=O)c1cc2c(cc1F)nc(N)c1cncn12)[C@@H]1COc2cc(F)ccc21 [Ff-568, (S)-4-amino-N-(6-fluoro-2,3-dihydrobenzofuran-3-yl)-7-fluoro-N-methylimidazo[1,5-a]quinoxaline-8-carboxamide]",–,100 to 1000 nM
